Laboratory results taken from patent US20260345543A1, “Bridged Bicyclic Compounds and their Derivatives as Antiepileptic Agents and Methods of Use Thereof” (Florida Atlantic University Board of Trustees, priority 2022, published 2026).

Key:
[1] = tested on: unc-25 and unc-49 loss of function mutant C. elegans; settings: unc-25 and unc-49 mutants; concentration not given; cited from earlier work
C. elegans (N2 worms) [2] = settings: effect of PTZ application; concentration not given; cited from earlier work
C. elegans (N2 worms) [3] = assay: C. elegans electroshock seizure assay (recovery time; with or without PTZ); type: in vivo; settings: 3 mM (3000 μM); with PTZ; control AED
Text: FIG. 2 is a graph showing recovery time (seconds) for N2 worms (vertical axis) in the presence of M9 or pentylenetetrazol (PTZ) (first two bars). In other experiments, PTZ is combined with either an RVM or sodium valproate.
FIG. 3 left is the structure of RVM-3, and FIG. 3 right is a graph showing recovery time (seconds) for N2 worms (vertical axis) in the presence of M9 or PTZ (first two bars). In other experiments, PTZ is combined with RVM-3 at varying concentrations or sodium valproate.
The structures of these RVMs are comprised of an all-carbon bridged bicyclic scaffold that is fully saturated, a motif that is without precedent in the AED literature. […] It is expected that a pharmacological intervention based on RVMs will provide relief from epileptic events at low dosages.
The C. elegans seizure assay includes placing L4 C. elegans into a small tube that is capped on both sides by copper wires. A shock of 47 V for three seconds is then administered. […] Recovery is recorded when the animals present with coordinated three sinusoidal movements, which is then characterized as normal swimming activity. […]
This C. elegans assay offers a new model for the evaluation of electroconvulsive seizures (FIG. 4). […] Recovery is recorded when the animals present with three sinusoidal movements, which is then characterized as normal swimming activity. […]

Row | SMILES | sensitivity to electroshock when mutants are treated with antiepileptic drugs [1] | seizure-like phenotypes seen in C. elegans (C. elegans (N2 worms) [2]) | sensitivity to electroshock when mutants are additionally treated with PTZ [1] | restoration of recovery time (C. elegans (N2 worms) [3])
1 | CC[C@@H](C(N)=O)N1CCCC1=O [Keppra, levetiracetam] | increased sensitivity is rescued |  |  | 
2 | C1CCc2nnnn2CC1 [PTZ, Pentylenetetrazole] |  | enhances the seizure-like phenotypes | sensitivity to electroshock is increased | 
3 | CCOC(=O)Nc1ccc(NCc2ccc(F)cc2)cc1N [Retigabine] | increased sensitivity is rescued |  |  | 
4 | CCCC(CCC)C(=O)[O-].[Na+] [Sodium valproate, sodium valproate] | increased sensitivity is rescued |  |  | relatively modest restoration of recovery time
